{"source": "patent US20170119742A1", "about": "“MEDICAMENT FOR PREVENTING AND/OR TREATING STRESS DISEASES” (ONO PHARMACEUTICAL CO., LTD., priority 2014, published 2017)", "key": {"brain TSPO [1]": {"system": "brain TSPO", "assay": "Brain occupancy using PET in monkeys, [11C] PBR28", "type": "in vivo", "conditions": "rhesus monkey PET, [11C] PBR28, oral", "procedure": "Male rhesus monkeys (Hamri Co., Ltd., at the time of use: 5 to 8 kg) were used. The vehicle (0.5 w/v % methylcellulose 400 cP solution) or the compound of the present invention (0.3 to 30 mg/kg) was once orally administered to 3 rhesus monkeys. After 2 hours of the administration, a PET measurement using [^11C] PBR28 was performed in the following manner.\nMeasurement equipment: PET camera; SHR-7700 (Hamamatsu Photonics K.K.) Image reconstruction: SHR Control II program (Hamamatsu Photonics K.K.) Change over time in brain radioactivity concentration and calculation of distribution volume: PMOD programs (PMOD Technologies Ltd.) Measurement methods: 120 minutes blank measurement and 30 minutes transmission measurement were performed using 68Ge/68Ga calibration source. Next, [^11C] […]\nThe compound of the present invention (0.3 to 10 mg/kg) was orally administered twice daily for 3 days, once on day 4 to 3 rhesus monkeys. […] Brain TSPO occupancy relative to the distribution volume of the vehicle control group was calculated by calculating the distribution volume of the interest area (cerebellum, hippocampus, striatum, thalamus, occipital lobe, temporal lobe, frontal lobe and parietal lobe) from the brain radioactivity concentration time change of [^11C] PBR28 and arterial blood plasma radioactivity which was corrected in a non-metabolic rate."}, "brain TSPO [2]": {"molecular_target": "T1, brain TSPO (Homo sapiens, UniProt P30536)", "T1 construct": "from tissue; host or cells: living human brain (PET, healthy adults)", "T1 sequence (P30536 whole entry)": "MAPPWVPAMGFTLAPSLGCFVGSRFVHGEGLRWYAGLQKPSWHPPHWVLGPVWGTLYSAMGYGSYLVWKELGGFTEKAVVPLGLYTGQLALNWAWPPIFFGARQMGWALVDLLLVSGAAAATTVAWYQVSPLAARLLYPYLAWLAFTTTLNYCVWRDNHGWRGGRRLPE", "assay": "Prediction of brain TSPO occupancy in steady state, once daily in humans (Biological example 8)", "conditions": "for ROmax (%) Predicted 5 percentile / ROmax (%) Predicted 95 percentile / ROmax (%) Predicted median: maximum brain TSPO occupancy; for ROmin (%) Predicted 5 percentile / ROmin (%) Predicted 95 percentile / ROmin (%) Predicted median: minimum brain TSPO occupancy", "description": "Further, a transition in the plasma concentration of the compound of the present invention, in a steady state when administered once daily, was predicted. And brain TSPO occupancy was predicted by using the relationship between plasma concentration and brain TSPO occupancy that shown in FIG. 5."}, "[3]": {"system": "female diarrhea-type IBS patients", "assay": "HAM-D (Hamilton Depression scale) in the clinical trial of Biological example 10", "type": "in vivo, human", "conditions": "60 mg treatment", "procedure": "In the clinical trial of Biological example 10, the therapeutic effect of the compound of the present invention 60 mg treatment on depression and anxiety-related diseases were evaluated using PSS (Perceived Stress Scale) (refer to Journal of Health and Social Behavior, 24, 386-396, 1983), HAM-A (Hamilton Anxiety Scale) (refer to The British journal of medical psychology, 32, 50-55, 1959) and HAM-D (Hamilton Depression scale) (refer to Journal of Neurology, Neurosurgery and Psychiatry, 23, 56-62, 1960) as rating scales."}, "brain TSPO [4]": {"system": "brain TSPO", "assay": "Ex vivo brain TSPO occupancy in monkeys, [3H] PBR28", "conditions": "rhesus monkey, once on day 4, 2 h after final dose", "procedure": "(§1) The vehicle (0.5 w/v % methylcellulose 400 cP solution) or the compound of the present invention (0.4 or 1 mg/kg) was orally administered twice daily for 3 days, once on day 4 to male rhesus monkeys (Shin Nippon Biomedical Laboratories, Ltd., at the time of use: 4 to 6 kg). After 2 hours of the final administration, in the same manner as Biological example 1, brain TSPO occupancy of the compound of the present invention relative to the specific binding of the vehicle control group was measured by measuring the specific binding amount of [3H] PBR28 on brain (anterior cingulate cortex, caudate nucleus, amygdala, hippocampus and occipital lobe) homogenates (n=3 in vehicle control group, n=5 in each the compound of the present invention treated group). As a result, the average TSPO occupancy of brain 5 sites was 37.9 and 56.6% in 0.4 and 1 mg/kg group of the compound of the present invention. The average plasma concentration of the compound of the present invention was 23.9 and 154 ng/mL in 0.4 and 1 mg/kg group."}, "[5]": {"assay": "Plasma concentration in monkeys (ex vivo occupancy study)", "conditions": "male, rhesus monkey, once on day 4", "procedure": "as §1"}, "[6]": {"conditions": "0.4 mg/kg oral twice daily 3 days"}, "[7]": {"conditions": "1 mg/kg oral twice daily 3 days"}}, "data": [{"molecule": "COc1cc(Cl)ccc1[C@H]1c2[nH]c3cccc(F)c3c2C2(CC2)CN1C(C)=O", "note": "[the compound of the present invention, (1S)-2-acetyl-1-(4-chloro-2-methoxyphenyl)-5-fluoro-1,2,3,9-tetrahydrospiro[β-carboline-4,1′-cyclopropane]]", "values": [{"measurement": "plasma concentration at which brain TSPO occupancy reaches about 50%", "setting": "brain TSPO [1]", "result": "about 70 ng/mL"}, {"measurement": "ROmax (%) Predicted 5 percentile", "setting": "brain TSPO [2]; dose 1 mg", "result": 28.3, "unit": "%"}, {"measurement": "ROmax (%) Predicted 95 percentile", "setting": "brain TSPO [2]; dose 1 mg", "result": 48.8, "unit": "%"}, {"measurement": "ROmax (%) Predicted median", "setting": "brain TSPO [2]; dose 1 mg", "result": 38.4, "unit": "%"}, {"measurement": "ROmin (%) Predicted 5 percentile", "setting": "brain TSPO [2]; dose 1 mg", "result": 11.5, "unit": "%"}, {"measurement": "ROmin (%) Predicted 95 percentile", "setting": "brain TSPO [2]; dose 1 mg", "result": 30.5, "unit": "%"}, {"measurement": "ROmin (%) Predicted median", "setting": "brain TSPO [2]; dose 1 mg", "result": 19.4, "unit": "%"}, {"measurement": "ROmax (%) Predicted 5 percentile", "setting": "brain TSPO [2]; dose 5 mg", "result": 60.5, "unit": "%"}, {"measurement": "ROmax (%) Predicted 95 percentile", "setting": "brain TSPO [2]; dose 5 mg", "result": 84.6, "unit": "%"}, {"measurement": "ROmax (%) Predicted median", "setting": "brain TSPO [2]; dose 5 mg", "result": 72.0, "unit": "%"}, {"measurement": "ROmin (%) Predicted 5 percentile", "setting": "brain TSPO [2]; dose 5 mg", "result": 38.0, "unit": "%"}, {"measurement": "ROmin (%) Predicted 95 percentile", "setting": "brain TSPO [2]; dose 5 mg", "result": 67.7, "unit": "%"}, {"measurement": "ROmin (%) Predicted median", "setting": "brain TSPO [2]; dose 5 mg", "result": 52.5, "unit": "%"}, {"measurement": "ROmax (%) Predicted 5 percentile", "setting": "brain TSPO [2]; dose 10 mg", "result": 69.6, "unit": "%"}, {"measurement": "ROmax (%) Predicted 95 percentile", "setting": "brain TSPO [2]; dose 10 mg", "result": 94.2, "unit": "%"}, {"measurement": "ROmax (%) Predicted median", "setting": "brain TSPO [2]; dose 10 mg", "result": 80.9, "unit": "%"}, {"measurement": "ROmin (%) Predicted 5 percentile", "setting": "brain TSPO [2]; dose 10 mg", "result": 52.8, "unit": "%"}, {"measurement": "ROmin (%) Predicted 95 percentile", "setting": "brain TSPO [2]; dose 10 mg", "result": 81.0, "unit": "%"}, {"measurement": "ROmin (%) Predicted median", "setting": "brain TSPO [2]; dose 10 mg", "result": 67.1, "unit": "%"}, {"measurement": "ROmax (%) Predicted 5 percentile", "setting": "brain TSPO [2]; dose 20 mg", "result": 75.1, "unit": "%"}, {"measurement": "ROmax (%) Predicted 95 percentile", "setting": "brain TSPO [2]; dose 20 mg", "result": 100.0, "unit": "%"}, {"measurement": "ROmax (%) Predicted median", "setting": "brain TSPO [2]; dose 20 mg", "result": 86.4, "unit": "%"}, {"measurement": "ROmin (%) Predicted 5 percentile", "setting": "brain TSPO [2]; dose 20 mg", "result": 64.6, "unit": "%"}, {"measurement": "ROmin (%) Predicted 95 percentile", "setting": "brain TSPO [2]; dose 20 mg", "result": 91.5, "unit": "%"}, {"measurement": "ROmin (%) Predicted median", "setting": "brain TSPO [2]; dose 20 mg", "result": 77.6, "unit": "%"}, {"measurement": "ROmax (%) Predicted 5 percentile", "setting": "brain TSPO [2]; dose 30 mg", "result": 77.0, "unit": "%"}, {"measurement": "ROmax (%) Predicted 95 percentile", "setting": "brain TSPO [2]; dose 30 mg", "result": 102.6, "unit": "%"}, {"measurement": "ROmax (%) Predicted median", "setting": "brain TSPO [2]; dose 30 mg", "result": 88.5, "unit": "%"}, {"measurement": "ROmin (%) Predicted 5 percentile", "setting": "brain TSPO [2]; dose 30 mg", "result": 69.7, "unit": "%"}, {"measurement": "ROmin (%) Predicted 95 percentile", "setting": "brain TSPO [2]; dose 30 mg", "result": 94.9, "unit": "%"}, {"measurement": "ROmin (%) Predicted median", "setting": "brain TSPO [2]; dose 30 mg", "result": 81.8, "unit": "%"}, {"measurement": "ROmax (%) Predicted 5 percentile", "setting": "brain TSPO [2]; dose 50 mg", "result": 78.7, "unit": "%"}, {"measurement": "ROmax (%) Predicted 95 percentile", "setting": "brain TSPO [2]; dose 50 mg", "result": 104.0, "unit": "%"}, {"measurement": "ROmax (%) Predicted median", "setting": "brain TSPO [2]; dose 50 mg", "result": 90.2, "unit": "%"}, {"measurement": "ROmin (%) Predicted 5 percentile", "setting": "brain TSPO [2]; dose 50 mg", "result": 74.1, "unit": "%"}, {"measurement": "ROmin (%) Predicted 95 percentile", "setting": "brain TSPO [2]; dose 50 mg", "result": 99.0, "unit": "%"}, {"measurement": "ROmin (%) Predicted median", "setting": "brain TSPO [2]; dose 50 mg", "result": 85.8, "unit": "%"}, {"measurement": "ROmax (%) Predicted 5 percentile", "setting": "brain TSPO [2]; dose 60 mg", "result": 78.8, "unit": "%"}, {"measurement": "ROmax (%) Predicted 95 percentile", "setting": "brain TSPO [2]; dose 60 mg", "result": 104.2, "unit": "%"}, {"measurement": "ROmax (%) Predicted median", "setting": "brain TSPO [2]; dose 60 mg", "result": 91.0, "unit": "%"}, {"measurement": "ROmin (%) Predicted 5 percentile", "setting": "brain TSPO [2]; dose 60 mg", "result": 75.0, "unit": "%"}, {"measurement": "ROmin (%) Predicted 95 percentile", "setting": "brain TSPO [2]; dose 60 mg", "result": 100.1, "unit": "%"}, {"measurement": "ROmin (%) Predicted median", "setting": "brain TSPO [2]; dose 60 mg", "result": 87.0, "unit": "%"}, {"measurement": "ROmax (%) Predicted 5 percentile", "setting": "brain TSPO [2]; dose 70 mg", "result": 79.4, "unit": "%"}, {"measurement": "ROmax (%) Predicted 95 percentile", "setting": "brain TSPO [2]; dose 70 mg", "result": 104.8, "unit": "%"}, {"measurement": "ROmax (%) Predicted median", "setting": "brain TSPO [2]; dose 70 mg", "result": 91.2, "unit": "%"}, {"measurement": "ROmin (%) Predicted 5 percentile", "setting": "brain TSPO [2]; dose 70 mg", "result": 76.4, "unit": "%"}, {"measurement": "ROmin (%) Predicted 95 percentile", "setting": "brain TSPO [2]; dose 70 mg", "result": 101.1, "unit": "%"}, {"measurement": "ROmin (%) Predicted median", "setting": "brain TSPO [2]; dose 70 mg", "result": 88.2, "unit": "%"}, {"measurement": "ROmax (%) Predicted 5 percentile", "setting": "brain TSPO [2]; dose 100 mg", "result": 80.1, "unit": "%"}, {"measurement": "ROmax (%) Predicted 95 percentile", "setting": "brain TSPO [2]; dose 100 mg", "result": 106.1, "unit": "%"}, {"measurement": "ROmax (%) Predicted median", "setting": "brain TSPO [2]; dose 100 mg", "result": 92.1, "unit": "%"}, {"measurement": "ROmin (%) Predicted 5 percentile", "setting": "brain TSPO [2]; dose 100 mg", "result": 77.6, "unit": "%"}, {"measurement": "ROmin (%) Predicted 95 percentile", "setting": "brain TSPO [2]; dose 100 mg", "result": 103.1, "unit": "%"}, {"measurement": "ROmin (%) Predicted median", "setting": "brain TSPO [2]; dose 100 mg", "result": 90.0, "unit": "%"}, {"measurement": "HAM-D score, 4th week", "setting": "[3]; Patient D, baseline 18", "result": 2}, {"measurement": "HAM-D score, Amount of change from baseline", "setting": "[3]; Patient D, baseline 18, 4th week", "result": "−16"}, {"measurement": "HAM-D score, 4th week", "setting": "[3]; Patient E, baseline 13", "result": 3}, {"measurement": "HAM-D score, Amount of change from baseline", "setting": "[3]; Patient E, baseline 13, 4th week", "result": "−10"}, {"measurement": "HAM-D score, 4th week", "setting": "[3]; Patient F, baseline 20", "result": 13}, {"measurement": "HAM-D score, Amount of change from baseline", "setting": "[3]; Patient F, baseline 20, 4th week", "result": "−7"}, {"measurement": "HAM-D score, 4th week", "setting": "[3]; Patient G, baseline 13", "result": 4}, {"measurement": "HAM-D score, Amount of change from baseline", "setting": "[3]; Patient G, baseline 13, 4th week", "result": "−9"}, {"measurement": "average TSPO occupancy of brain 5 sites", "setting": "brain TSPO [4]; [6]", "result": 37.9, "unit": "%"}, {"measurement": "average TSPO occupancy of brain 5 sites", "setting": "brain TSPO [4]; [7]", "result": 56.6, "unit": "%"}, {"measurement": "concentration at 2 h", "setting": "[5]; [6]", "result": 23.9, "unit": "ng/mL"}, {"measurement": "concentration at 2 h", "setting": "[5]; [7]", "result": 154, "unit": "ng/mL"}]}]}
